Experimental data: paper PMC9061180 (RSC Advances, 2019)
Like-named read-outs stand apart in the source and are kept apart here.

What was measured:
Assay type in all cases: cell-based
MCF-7 (breast carcinoma) = experiment: cells; settings: read-out: GI50 MCF-7
[1] = test system: Du145 (prostate carcinoma); experiment: cells; settings: read-out: GI50 Du145
[2] = test system: A2780 (ovarian carcinoma); experiment: cells; settings: read-out: GI50 A2780
H460 (lung carcinoma) = experiment: cells; settings: read-out: GI50 H460
A431 (skin carcinoma) = experiment: cells; settings: read-out: GI50 A431
BE2-C (neuroblastoma) = experiment: cells; settings: read-out: GI50 BE2-C
[3] = test system: MIA (pancreatic carcinoma); experiment: cells; settings: read-out: GI50 MIA
U87 (glioblastoma) = experiment: cells; settings: read-out: GI50 U87
SJ-G2 (glioblastoma) = experiment: cells; settings: read-out: GI50 SJ-G2
MCF10A (normal breast) = experiment: cells; settings: read-out: GI50 MCF10A
[4] = test system: panel of eleven cancer cell lines and one normal cell line; experiment: MTT cytotoxicity, panel of eleven cancer cell lines and one normal cell line; settings: for activity in initial screen: 25 μM drug concentration; for levels of toxicity: against HT29, U87, A2780, MIA and SMA cell lines; for GI50: read-out: average GI50
HT29 (colon carcinoma) = experiment: cells; settings: read-out: GI50 HT29
[5] = test system: SMA (spontaneous murine astrocytoma); experiment: cells; settings: read-out: GI50 SMA
[6] = Table 5, normal breast cell line, 72 h exposure, MTT

| Molecule | GI50 (MCF-7 (breast carcinoma); Homo sapiens, MCF7, 72 h) [nM] | GI50 ([1]; Homo sapiens, DU-145, 72 h) [nM] | GI50 ([2]; Homo sapiens, A2780, 72 h) [nM] | GI50 (H460 (lung carcinoma); Homo sapiens, NCI-H460, 72 h) [nM] | GI50 (A431 (skin carcinoma); Homo sapiens, A-431, 72 h) [nM] | GI50 (BE2-C (neuroblastoma); Homo sapiens, BE(2)-C, 72 h) [nM] | GI50 ([3]; 72 h) [nM] | GI50 (U87 (glioblastoma); 72 h) [nM] | GI50 (SJ-G2 (glioblastoma); SJ-G2, 72 h) [nM] | GI50 (HT29 (colon carcinoma); Homo sapiens, HT-29, 72 h) [nM] | GI50 ([5]; Mus musculus, 72 h) [nM] | GI50 (MCF10A (normal breast); Homo sapiens, MCF-10A, 72 h) [nM] | activity in initial screen [4] | levels of toxicity [4] | GI50 [4] [nM] | other results |
| --- | --- | --- | --- | --- | --- | --- | --- | --- | --- | --- | --- | --- | --- | --- | --- | --- |
| C#CC(=O)N(c1ccccc1)C(C(=O)NC1CCCCC1)c1ccccc1 (racemic) [Compound 12, (RS)-N-(2-(Cyclohexylamino)-2-oxo-1-phenylethyl)-N-phenylpropiolamide] | 1600 ± 290 | 180 ± 10 | 230 ± 20 | 3600 ± 600 | 1000 ± 200 | 500 ± 200 | 250 ± 20 | 190 ± 10 | 3000 ± 100 | 270 ± 10 | 250 | 2900 ± 100 | sufficiently promising activity | sub-micro molar | 1160 |  |
| O=C(NC1CCCCC1)C(c1ccccc1)N(C(=O)CC(F)(F)F)c1ccccc1 (racemic) [Compound 16g, (RS)-N-(2-(Cyclohexylamino)-2-oxo-1-phenylethyl)-3,3,3-trifluoro-N-phenylpropanamide] | 8000 ± 2000 | 4800 ± 400 | 6500 ± 200 | 6000 ± 500 | 4300 ± 300 | 6900 ± 600 | 5900 ± 100 | 12000 ± 1000 | 11000 ± 1000 | 5900 ± 200 | 10000 ± 300 | 5100 ± 500 | sufficiently promising activity |  | 7200 |  |
| C#CC(=O)N(c1ccccc1)C(C(=O)NCc1ccccc1)c1ccccc1 (racemic) [Compound 17a, (RS)-N-(2-(Benzylamino)-2-oxo-1-phenylethyl)-N-phenylpropiolamide] | 1700 ± 200 | 1000 ± 10 | 100 ± 34 | 2000 ± 500 | 970 ± 200 | 1400 ± 300 | 150 ± 9 | 130 ± 17 | 2500 ± 100 | 170 ± 3 | 160 | 1400 ± 400 | sufficiently promising activity | sub-micro molar | 970 |  |
| CC(=O)N(c1ccccc1)C(C(=O)NCc1ccccc1)c1ccccc1 (racemic) [Compound 17e, (RS)-N-Benzyl-2-phenyl-2-(N-phenylacetamido)acetamide] | > 50000 | > 50000 | 16000 | 21000 | 13000 ± 1000 | 25000 ± 9000 | 8500 ± 900 | > 50000 | 15000 ± 4000 | > 50000 | > 50000 | 15000 ± 1000 | sufficiently promising activity |  |  |  |
| (RS)-N-(2-(Cyclohexylamino)-2-oxo-1-phenylethyl)-N-phenylbut-2-enamide [Compound 16d] |  |  |  |  |  |  |  |  |  |  |  |  | sufficiently promising activity |  |  | GI50 (MCF-7 (breast carcinoma); Table 5, 72 h exposure, MTT): 4600 ± 1300 nM; GI50 ([1]; Table 5, 72 h exposure, MTT): 8600 ± 2300 nM; GI50 ([2]; Table 5, 72 h exposure, MTT): 12000 nM; GI50 (H460 (lung carcinoma); Table 5, 72 h exposure, MTT): 13000 ± 300 nM; GI50 (A431 (skin carcinoma); Table 5, 72 h exposure, MTT): 2200 ± 100 nM; GI50 (BE2-C (neuroblastoma); Table 5, 72 h exposure, MTT): 2600 ± 300 nM; GI50 ([3]; Table 5, 72 h exposure, MTT): 4500 ± 300 nM; GI50 (U87 (glioblastoma); Table 5, 72 h exposure, MTT): 16000 nM; GI50 (SJ-G2 (glioblastoma); Table 5, 72 h exposure, MTT): 13000 ± 1000 nM; GI50 (MCF10A (normal breast); [6]): 7500 ± 1800 nM; GI50 ([4]; average over the cell lines of Table 5): 9400 nM; GI50 (HT29 (colon carcinoma); Table 5, 72 h exposure, MTT): 15000 ± 1000 nM; GI50 ([5]; Table 5, 72 h exposure, MTT): 14000 ± 2000 nM |
| N-(2-cyclohexylamino)-1-(4-methoxyphenyl)-2-oxoethyl-N-(3,5-dimethoxyphenyl)propiolamide [Compound 1, reference compound] |  |  |  |  |  |  |  |  |  |  |  |  |  |  |  | GI50 (MCF-7 (breast carcinoma); Table 5, 72 h exposure, MTT): 1700 ± 170 nM; GI50 ([1]; Table 5, 72 h exposure, MTT): 110 ± 50 nM; GI50 ([2]; Table 5, 72 h exposure, MTT): 580 ± 510 nM; GI50 (H460 (lung carcinoma); Table 5, 72 h exposure, MTT): 1400 ± 600 nM; GI50 (A431 (skin carcinoma); Table 5, 72 h exposure, MTT): 460 ± 150 nM; GI50 (BE2-C (neuroblastoma); Table 5, 72 h exposure, MTT): 30 ± 10 nM; GI50 ([3]; Table 5, 72 h exposure, MTT): 60 ± 30 nM; GI50 (U87 (glioblastoma); Table 5, 72 h exposure, MTT): 60 ± 20 nM; GI50 (SJ-G2 (glioblastoma); Table 5, 72 h exposure, MTT): 1700 ± 260 nM; GI50 (MCF10A (normal breast); [6]): 290 ± 30 nM; GI50 ([4]; across the cancer cell lines evaluated): ≤ 1000 nM; GI50 (HT29 (colon carcinoma); Table 5, 72 h exposure, MTT): 70 ± 10 nM |

Continued, in another order:

| GI50 (MCF-7 (breast carcinoma); Homo sapiens, MCF7, 72 h) [nM] | GI50 ([1]; Homo sapiens, DU-145, 72 h) [nM] | GI50 ([2]; Homo sapiens, A2780, 72 h) [nM] | GI50 (H460 (lung carcinoma); Homo sapiens, NCI-H460, 72 h) [nM] | GI50 (A431 (skin carcinoma); Homo sapiens, A-431, 72 h) [nM] | GI50 (BE2-C (neuroblastoma); Homo sapiens, BE(2)-C, 72 h) [nM] | GI50 ([3]; 72 h) [nM] | GI50 (U87 (glioblastoma); 72 h) [nM] | GI50 (SJ-G2 (glioblastoma); SJ-G2, 72 h) [nM] | GI50 (HT29 (colon carcinoma); Homo sapiens, HT-29, 72 h) [nM] | GI50 ([5]; Mus musculus, 72 h) [nM] | Molecule | GI50 (MCF10A (normal breast); Homo sapiens, MCF-10A, 72 h) [nM] | activity in initial screen [4] | levels of toxicity [4] | GI50 [4] [nM] | other results |
| --- | --- | --- | --- | --- | --- | --- | --- | --- | --- | --- | --- | --- | --- | --- | --- | --- |
| 2700 ± 130 | 320 ± 40 | 330 ± 110 | 3000 ± 400 | 2100 ± 300 | 1800 ± 400 | 500 ± 100 | 270 ± 30 | 3000 ± 200 | 470 ± 90 | 480 ± 60 | C#CC(=O)N(c1ccccc1)C(C(=O)NCC(=O)OCC)c1ccccc1 (racemic) [Compound 18a, (RS)-Ethyl (2-phenyl-2-(N-phenylpropiolamido)acetyl)glycinate] | 6600 ± 1000 | sufficiently promising activity | sub-micro molar | 1800 |  |
| 1200 ± 33 | 200 ± 69 | 220 ± 17 | 2200 ± 200 | 590 ± 260 | 200 ± 6.7 | 200 ± 20 | 220 | 760 ± 570 | 200 ± 20 |  | C#CC(=O)N(c1ccc(OC)cc1)C(C(=O)NC1CCCCC1)c1ccccc1 (racemic) [Compound 19, (RS)-N-(2-(Cyclohexylamino)-2-oxo-1-phenylethyl)-N-(4-methoxyphenyl)propiolamide] | 3300 ± 520 |  |  |  |  |
| 1800 ± 67 | 660 ± 240 | 490 ± 95 | 2300 ± 300 | 1200 ± 410 | 460 ± 38 | 460 ± 100 | 710 ± 64 | 1800 ± 88 | 470 ± 120 |  | C#CC(=O)N(c1ccccc1)C(C(=O)NC1CCCCC1)c1cccc(OC)c1OC (racemic) [Compound 20, (RS)-N-(2-(Cyclohexylamino)-1-(2,3-dimethoxyphenyl)-2-oxoethyl)-N-phenylpropiolamide] | 7600 ± 1800 |  |  |  |  |
| 1500 ± 120 | 610 ± 250 | 540 ± 120 | 2800 ± 1100 | 1000 ± 290 | 270 ± 29 | 440 ± 140 | 730 ± 130 | 1600 ± 180 | 530 ± 41 |  | C#CC(=O)N(c1ccccc1)C(C(=O)NC1CCCCC1)c1ccc(OC)c(OC)c1 (racemic) [Compound 21, (RS)-N-(2-(Cyclohexylamino)-1-(3,4-dimethoxyphenyl)-2-oxoethyl)-N-phenylpropiolamide] | 5100 ± 400 |  |  |  |  |
